From patent US20230255912A1, “COMPOSITIONS AND METHODS FOR TREATING CRP-MEDIATED DISEASES” (Ponce de Leon Health Designated Activity Company, priority 2020, published 2023)
Where two headings read alike, the source gives them in different places.

Legend:
CRP = test: Blood chemistry of a human volunteer: CRP; type: in vivo; details: for CRP: 1,000 mg Ca-AKG + 900 mcg Vitamin A daily, oral, baseline 4.9
Description: METHOD EXAMPLE. Blood chemistry. […] The following results were obtained:

[1] = for Total/HDL: baseline 2.9; for Alkaline phosphatase: baseline 44; for HDL: baseline 64; for Triglycerides: baseline 85; for Glucose: baseline 95; for Cholesterol: baseline 184; for Platelets: baseline 359
Description: METHOD EXAMPLE. Blood chemistry. […] Prior to the start of dosing, a baseline blood draw is obtained for hematology, chemistry, CRP measurement, and metabolite analyses. After the start of dosing, blood draws are obtained monthly.

inflammatory cytokines = details: female mice, 29 months
Experimental: METHOD EXAMPLE. Cytokine Levels in Aged Mice. Female mice (18 months) are divided into treatment and untreated groups. Baseline levels of 30 inflammatory cytokines are measured. […] Following treatment, levels of 30 inflammatory cytokines are measured from serum samples and compared to untreated controls.

[2] = compared to aged controls, p<0.05

Compound: O.O=C([O-])CCC(=O)C(=O)[O-].[Ca+2] [Ca-AKG, calcium alpha-ketoglutarate monohydrate]
- CRP (CRP; 10 Months): 2.5 mg/L
- CRP (CRP; 12 Months): 0.4 mg/L
- Total/HDL ([1]; 10 Months): 2.4
- Alkaline phosphatase ([1]; 10 Months): 40 U/L
- HDL ([1]; 10 Months): 76 mg/dL
- Triglycerides ([1]; 10 Months): 49 mg/dL
- Glucose ([1]; 10 Months): 104 mg/dL
- Cholesterol ([1]; 10 Months): 184 mg/dL
- Platelets ([1]; 10 Months): 392 K/CUMM
- Total/HDL ([1]; 12 Months): 2.4
- Alkaline phosphatase ([1]; 12 Months): 30 U/L
- HDL ([1]; 12 Months): 76 mg/dL
- Triglycerides ([1]; 12 Months): 52 mg/dL
- Glucose ([1]; 12 Months): 99 mg/dL
- Cholesterol ([1]; 12 Months): 181 mg/dL
- Platelets ([1]; 12 Months): 332 K/CUMM
- level of IL-3 (inflammatory cytokines; [2]): significantly lower
- level of IL-7 (inflammatory cytokines; [2]): significantly lower
- level of MIP-1β (inflammatory cytokines; [2]): significantly lower
- level of TNF-α (inflammatory cytokines; [2]): significantly lower
- levels of IL-3, IL-7, TNF-α, and MIP-1β compared to the 18 month baseline (inflammatory cytokines; treatment group vs 18 month baseline): statistically indistinguishable

Compound: O=C(O)CCC(=O)C(=O)O [AKG, 2-oxopentanedioic acid]
- lowering of CRP (CRP; human volunteer, baseline vs 12 months): more than 10 fold
- levels of triglycerides ([1]; human volunteer, vs baseline): improves
- other important biological markers, such as platelets, glucose, PSA ([1]; human volunteer, vs baseline): does not adversely affect
